Data from US4156777A, “Process for producing glucopyranose-nitrosourea compounds and novel compounds included therein” (Tokyo Tanabe Company, Limited, priority 1977, dated 1979).
Values after ≈ are worked out from the molar mass of the structure shown.

Experiments:
[1] = Absorption and excretion of 14C-labelled compounds; type: in vivo, rats
Procedure: The carbon atom at the 2-position of the chloroethyl group (i.e. ClCH2 CH2 -) of 6DCNU and 6MCαG was labelled with radioactive ^14 C, and the absorption and excretion of these compounds were tested using rats.

leukemia L-1210 = test: Antitumor activity against leukemia L-1210 implanted in BDF1 mice (ILS, 60 days survivors); type: in vivo
Source text: Test compounds were given to BDF1 mice 24 hrs after implantation of 10^6 cells of leukemia L-1210 in each animal, through single intraperitoneal administration, intraperitoneal administration for 5 successive days, single oral administration or oral administration for 5 successive days, whereupon the increase in life span (referred to as "ILS") and number of 60 days survivors of test animals were estimated, said test of antitumor activity being that according to the method of the National Cancer Center, Tokyo [A. Hoshi et al: Farmashia, 9 (1973), 464]. In the tests, the compounds were dissolved in physiological saline solution just before administration.
^a i.p.: intraperitoneal administration p.o: oral administration
D1 : single administration D1~5 : administration for 5
^b percentage calculated from mean survival time over control
^c survivors/six animals

[2] = Diabetogenic activity (blood glucose concentration after intravenous administration); type: in vivo, male Wister rats
Procedure: 40-96 mg/kg of the test compounds were administered intravenously to starved male Wister rats weighing 240-260 g each, and the blood glucose concentrations of the test animals were estimated by the glucose exidase method [L. L. Saloman et al: Anal. Chem., 31 (1959), 453], in which test the compounds were dissolved in physiological saline solution just before administration. […]

Acute toxicity (LD50) = type: in vivo, male Wister rats; details: rat, in vivo, after 1 week
Procedure: Test compounds were dissolved in physiological saline solution just before their dosage and administered to male Wister rats, intraperitoneally, intravenously and orally. After 1 week, the LD50 of each compound was calculated from the mortality of the test animals by the Lichfield-Wilcoxon Method.
i.v.: intravenous administration

[3] = Effect on respiration, blood pressure, heart rate and electrocardiogram; type: in vivo, Beagle dogs; details: dog, in vivo, iv; injected into brachial veins, anesthetized Beagle dogs; read-out: maximum dosage not effected on respiration, blood pressure, heart rate and electrocardiogram
Procedure: Beagle dogs of both sexes weighing about 10 kg were anesthetized with pentobarbital sodium (30 mg/kg, i.v.), and immobilized in the supine position. Test compounds dissolved in physiological saline solution were injected into the brachial veins of the animals and the arteries at cannulated positions were treated with heparin sodium as anticoagulant.
The respiration rate of each animal was estimated with a respirometer (Nihonkohden, RP-3) through a tracheal cannula, the blood pressure with an electro-haemodynamometer (Nihonkohden, MP-4T) attached surgically to the femoral artery, and the heart rate with a pulse-rate tachometer (Nihonkohden, RT-2) through the trigger pulse of the blood pressure.

[4] = known compounds, generally seen; cited from earlier work
[5] = Solubility in water at 25° C.; type: physicochemical; details: amount soluble in 1 ml water at 25° C.
[6] = 40 mg/kg i.v., 0 hr after treatment
[7] = 40 mg/kg i.v., 2 hr after treatment
[8] = 40 mg/kg i.v., 4 hr after treatment
[9] = 40 mg/kg i.v., 7 hr after treatment
[10] = 40 mg/kg i.v., 10 hr after treatment
[11] = 40 mg/kg i.v., 24 hr after treatment
[12] = 40 mg/kg i.v., 48 hr after treatment
[13] = 60 mg/kg i.v., 0 hr after treatment
[14] = 60 mg/kg i.v., 2 hr after treatment
[15] = 60 mg/kg i.v., 4 hr after treatment
[16] = 60 mg/kg i.v., 7 hr after treatment
[17] = 60 mg/kg i.v., 10 hr after treatment
[18] = 60 mg/kg i.v., 24 hr after treatment
[19] = 60 mg/kg i.v., 48 hr after treatment

O=NN(C[14CH2]Cl)C(=O)NC[C@H]1OC(O)[C@H](O)[C@@H](O)[C@@H]1O (stereo partly shown) [6DCNU-^14 C]
dose excreted in urine ([1]; within 12 hours after the dose): 65-70% | dose excreted in expiration ([1]; within 24 hours): 3-5% | dose excreted in faeces ([1]; within 72 hours): 10-15% | dose excreted in urine ([1]; within 72 hours after the dose): 75-80%

O=NN(CCCl)C(=O)N[C@@H]1O[C@H](CO)[C@@H](O)[C@H](O)[C@H]1O [GANU, 1-(2-chloroethyl)-3-(β-D-glucopyranosyl)-1-nitrosourea]
ILS (leukemia L-1210; 1.0 mg/kg/day, i.p. D1): 42% | ILS (leukemia L-1210; 5.0 mg/kg/day, i.p. D1): > 280% | Survivors (60 days) (leukemia L-1210; 5.0 mg/kg/day, i.p. D1): 2/6 | ILS (leukemia L-1210; 5.0 mg/kg/day, p.o. D1): 5% | ILS (leukemia L-1210; 10.0 mg/kg/day, i.p. D1): > 295% | Survivors (60 days) (leukemia L-1210; 10.0 mg/kg/day, i.p. D1): 2/6 | ILS (leukemia L-1210; 10.0 mg/kg/day, p.o. D1): 45% | ILS (leukemia L-1210; 15.0 mg/kg/day, i.p. D1): > 507% | Survivors (60 days) (leukemia L-1210; 15.0 mg/kg/day, i.p. D1): 5/6 | ILS (leukemia L-1210; 20.0 mg/kg/day, i.p. D1): > 518% | Survivors (60 days) (leukemia L-1210; 20.0 mg/kg/day, i.p. D1): 5/6 | ILS (leukemia L-1210; 20.0 mg/kg/day, p.o. D1): 75% | ILS (leukemia L-1210; 25.0 mg/kg/day, i.p. D1): > 472% | Survivors (60 days) (leukemia L-1210; 25.0 mg/kg/day, i.p. D1): 5/6 | ILS (leukemia L-1210; 25.0 mg/kg/day, p.o. D1): 110% | ILS (leukemia L-1210; 35.0 mg/kg/day, p.o. D1): 70% | Blood Glucose Concentration [2, 6]: 67.8 mg/dL | Blood Glucose Concentration [2, 7]: 70.4 mg/dL | Blood Glucose Concentration [2, 8]: 71.3 mg/dL | Blood Glucose Concentration [2, 9]: 94.4 mg/dL | Blood Glucose Concentration [2, 10]: 98.2 mg/dL | Blood Glucose Concentration [2, 11]: 120.3 mg/dL | Blood Glucose Concentration [2, 12]: 186.5 mg/dL | Blood Glucose Concentration [2, 13]: 67.3 mg/dL | Blood Glucose Concentration [2, 14]: 71.2 mg/dL | Blood Glucose Concentration [2, 15]: 72.6 mg/dL | Blood Glucose Concentration [2, 16]: 95.4 mg/dL | Blood Glucose Concentration [2, 17]: 105.9 mg/dL | Blood Glucose Concentration [2, 18]: 125.5 mg/dL | Blood Glucose Concentration [2, 19]: 189.8 mg/dL | LD50 at 168 h (Acute toxicity (LD50); ip): 24 mg/kg | LD50 at 168 h (Acute toxicity (LD50); iv): 10 mg/kg | LD50 at 168 h (Acute toxicity (LD50); po): 21 mg/kg | NOAEL [3]: 10 mg/kg | diabetogenic activity, decreasing order [4]: SZ>DCNU>GANU> 2MCαG≈6MCαG

O=NN(CCCl)C(=O)N[C@H]1C(O)O[C@H](CO)[C@@H](O)[C@@H]1O (stereo partly drawn) [DCNU, 1-(2-chloroethyl)-3-(D-glucopyranos-2-yl)-1-nitrosourea]
solubility [5]: 40 mg/mL (≈ 128 mM) | ILS (leukemia L-1210; 1.6 mg/kg/day, i.p. D1~5): > 143% | Survivors (60 days) (leukemia L-1210; 1.6 mg/kg/day, i.p. D1~5): 1/6 | ILS (leukemia L-1210; 1.6 mg/kg/day, p.o. D1~5): -10% | ILS (leukemia L-1210; 3.2 mg/kg/day, i.p. D1~5): > 407% | Survivors (60 days) (leukemia L-1210; 3.2 mg/kg/day, i.p. D1~5): 3/6 | ILS (leukemia L-1210; 3.2 mg/kg/day, p.o. D1~5): 6% | ILS (leukemia L-1210; 4.5 mg/kg/day, i.p. D1~5): > 406% | Survivors (60 days) (leukemia L-1210; 4.5 mg/kg/day, i.p. D1~5): 3/6 | ILS (leukemia L-1210; 6.3 mg/kg/day, i.p. D1): > 265% | Survivors (60 days) (leukemia L-1210; 6.3 mg/kg/day, i.p. D1): 3/6 | ILS (leukemia L-1210; 6.3 mg/kg/day, i.p. D1~5): > 622% | Survivors (60 days) (leukemia L-1210; 6.3 mg/kg/day, i.p. D1~5): 5/6 | ILS (leukemia L-1210; 6.3 mg/kg/day, p.o. D1~5): 13% | ILS (leukemia L-1210; 9.0 mg/kg/day, i.p. D1~5): > 153% | Survivors (60 days) (leukemia L-1210; 9.0 mg/kg/day, i.p. D1~5): 1/6 | ILS (leukemia L-1210; 12.5 mg/kg/day, i.p. D1): > 418% | Survivors (60 days) (leukemia L-1210; 12.5 mg/kg/day, i.p. D1): 4/6 | ILS (leukemia L-1210; 12.5 mg/kg/day, p.o. D1~5): 13% | ILS (leukemia L-1210; 25.0 mg/kg/day, i.p. D1): > 315% | Survivors (60 days) (leukemia L-1210; 25.0 mg/kg/day, i.p. D1): 3/6 | ILS (leukemia L-1210; 25.0 mg/kg/day, p.o. D1~5): 13% | ILS (leukemia L-1210; 50.0 mg/kg/day, i.p. D1): -10% | ILS (leukemia L-1210; 50.0 mg/kg/day, p.o. D1~5): 15% | ILS (leukemia L-1210; 100.0 mg/kg/day, p.o. D1~5): 18% | ILS (leukemia L-1210; 200.0 mg/kg/day, p.o. D1~5): -23% | antitumor activity in oral administration, in words (leukemia L-1210; oral administration): no antitumor activity in oral administration | Blood Glucose Concentration [2, 6]: 67.5 mg/dL | Blood Glucose Concentration [2, 7]: 87.2 mg/dL | Blood Glucose Concentration [2, 8]: 74.6 mg/dL | Blood Glucose Concentration [2, 9]: 85.3 mg/dL | Blood Glucose Concentration [2, 10]: 110.2 mg/dL | Blood Glucose Concentration [2, 11]: 142.2 mg/dL | Blood Glucose Concentration [2, 12]: 229.4 mg/dL | Blood Glucose Concentration [2, 13]: 68.2 mg/dL | Blood Glucose Concentration [2, 14]: 88.4 mg/dL | Blood Glucose Concentration [2, 15]: 72.4 mg/dL | Blood Glucose Concentration [2, 16]: 92.1 mg/dL | Blood Glucose Concentration [2, 17]: 115.7 mg/dL | Blood Glucose Concentration [2, 18]: 162.6 mg/dL | Blood Glucose Concentration [2, 19]: 242.3 mg/dL | Blood Glucose Concentration ([2]; 80 mg/kg i.v., 0 hr after treatment): 70.5 mg/dL | Blood Glucose Concentration ([2]; 80 mg/kg i.v., 2 hr after treatment): 90.3 mg/dL | Blood Glucose Concentration ([2]; 80 mg/kg i.v., 4 hr after treatment): 68.6 mg/dL | Blood Glucose Concentration ([2]; 80 mg/kg i.v., 7 hr after treatment): 93.7 mg/dL | Blood Glucose Concentration ([2]; 80 mg/kg i.v., 10 hr after treatment): 123.5 mg/dL | Blood Glucose Concentration ([2]; 80 mg/kg i.v., 24 hr after treatment): 178.7 mg/dL | Blood Glucose Concentration ([2]; 80 mg/kg i.v., 48 hr after treatment): 264.8 mg/dL | LD50 at 168 h (Acute toxicity (LD50); ip): 44 mg/kg | LD50 at 168 h (Acute toxicity (LD50); po): 1150 mg/kg | NOAEL [3]: 20 mg/kg | diabetogenic activity, decreasing order [4]: SZ>DCNU>GANU> 2MCαG≈6MCαG
